The values that follow come from article PMC3855387, “AMPK Activation through Mitochondrial Regulation Results in Increased Substrate Oxidation and Improved Metabolic Parameters in Models of Diabetes” (PLoS ONE, 2013).

Assay [1] deals with T1, respiratory complex I (mitochondrial complex I) (Mus musculus, UniProt P03888+Q91WD5+Q9DC70).
T1 construct: gene Ndufs2; native complex in mouse liver mitochondrial lysate
The assay is described as follows: NADH oxidation (A340) in mouse liver mitochondrial lysate; succinate rescue of respiration in isolated mitochondria. The format is biochemical.

In assay [2] the target is T1, respiratory complex I (mitochondrial complex I). The assay is described as follows: NADH oxidation (A340) in mouse liver mitochondrial lysate. The format is biochemical.

Regarding `COc1ccc(C(=O)C2CCN(C(=O)c3ccc(C(=O)NC4CCN(Cc5ccc(C#N)cc5)CC4)cn3)CC2)cc1` [R419, N-(1-(4-cyanobenzyl)piperidin-4-yl)-6-(4-(4-methoxybenzoyl)piperidine-1-carbonyl)nicotinamide], the IC50 (as a rule, the midpoint of a concentration-inhibition curve) in assay [1] turned out to be 82 nM.

For the molecule `CN(C)C(=N)N=C(N)N` [metformin], the half-maximal inhibitory concentration (IC50) in assay [2] amounted to 27 mM.
